Measurements taken from ChEMBL document CHEMBL2157973, “An efficient synthesis of 3-OBn-6β,14-epoxy-bridged opiates from naltrexone and identification of a related dual MOR inverse agonist/KOR agonist” (Bioorg Med Chem Lett, 2012).

Key:
Format in all cases: functional, cell-based
[1] = target: T1, Mu-type opioid receptor (Homo sapiens, UniProt P35372); assay: Inverse agonist activity at human recombinant mu opioid receptor expressed in CHO cells after 3 hrs by [35S]GTPgammaS binding assay relative to KC-2-009
[2] = target: Kappa-type opioid receptor (Homo sapiens) (UniProt P41145); assay: Agonist activity at human kappa opioid receptor expressed in CHO cells after 3 hrs by [35S]GTPgammaS binding assay relative to control
[3] = target: Kappa-type opioid receptor (Homo sapiens) (UniProt P41145); assay: Agonist activity at human kappa opioid receptor expressed in CHO cells after 3 hrs by [35S]GTPgammaS binding assay
[4] = target: T1, Mu-type opioid receptor; assay: Inverse agonist activity at human recombinant mu opioid receptor expressed in CHO cells after 3 hrs by [35S]GTPgammaS binding assay

T1 sequence (P35372 whole entry): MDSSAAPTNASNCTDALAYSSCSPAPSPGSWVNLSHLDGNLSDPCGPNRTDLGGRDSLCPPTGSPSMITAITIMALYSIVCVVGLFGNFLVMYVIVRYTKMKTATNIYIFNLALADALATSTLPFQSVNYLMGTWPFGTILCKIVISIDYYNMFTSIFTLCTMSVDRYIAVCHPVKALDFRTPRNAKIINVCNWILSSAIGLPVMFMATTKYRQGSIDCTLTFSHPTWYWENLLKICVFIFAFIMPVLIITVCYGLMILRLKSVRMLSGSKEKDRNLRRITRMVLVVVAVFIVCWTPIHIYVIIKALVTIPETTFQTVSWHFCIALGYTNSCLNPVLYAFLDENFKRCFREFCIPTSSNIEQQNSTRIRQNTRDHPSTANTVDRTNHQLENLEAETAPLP
Kappa-type opioid receptor (Homo sapiens), sequence (P41145 whole entry): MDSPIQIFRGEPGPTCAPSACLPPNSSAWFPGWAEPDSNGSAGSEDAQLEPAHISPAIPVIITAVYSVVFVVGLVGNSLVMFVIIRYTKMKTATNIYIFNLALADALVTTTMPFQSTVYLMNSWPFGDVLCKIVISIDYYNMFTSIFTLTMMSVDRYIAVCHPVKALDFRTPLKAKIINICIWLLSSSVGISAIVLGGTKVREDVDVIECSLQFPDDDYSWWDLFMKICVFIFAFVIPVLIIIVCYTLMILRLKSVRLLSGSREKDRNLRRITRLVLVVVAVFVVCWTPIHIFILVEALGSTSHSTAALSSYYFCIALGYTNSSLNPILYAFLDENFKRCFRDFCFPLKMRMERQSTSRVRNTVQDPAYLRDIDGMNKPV

Structure (SMILES) | Emax [1] | Emax [2] | ED50 [3] | EC50 [4]
CS(=O)(=O)O[C@@H]1CC[C@@]2(O)[C@H]3Cc4ccc(O)c5c4[C@@]2(CCN3CC2CC2)[C@H]1O5 | 60.5% | 48% | 26 nM | 2.6 nM
Oc1ccc2c3c1O[C@H]1[C@H](O)CC[C@@]4(O)[C@@H](C2)N(CC2CC2)CC[C@]314 | 89% | – | – | –
